From ChEMBL document CHEMBL4406870, “Design, synthesis, and biological evaluation of 4-phenoxyquinoline derivatives as potent c-Met kinase inhibitor” (Bioorg Med Chem Lett, 2019)

What was measured:
A549 [1] = assay: Potency index, ratio of IC50 of foretinib to IC50 of compound for cytotoxicity against human A549 cells assessed as reduction in cell viability incubated for 72 hrs by MTT assay; type: functional
MKN-45 = assay: cells; settings: Homo sapiens, MKN-45, 72 h
Description: Cytotoxicity against human MKN45 cells assessed as reduction in cell viability incubated for 72 hrs by MTT assay

HT-29 [2] = assay: cells; settings: Homo sapiens, HT-29, 72 h
Description: Cytotoxicity against human HT-29 cells assessed as reduction in cell viability incubated for 72 hrs by MTT assay

NCI-H460 [3] = assay: cells; settings: Homo sapiens, NCI-H460, 72 h
Description: Cytotoxicity against human H460 cells assessed as reduction in cell viability incubated for 72 hrs by MTT assay

[4] = molecular target: Hepatocyte growth factor receptor (Homo sapiens, UniProt P08581); assay: Inhibition of cMET (unknown origin) using poly (Glu, Tyr) 4:1 as substrate incubated for 30 mins by HTRF assay
Chain of Hepatocyte growth factor receptor (P08581 whole entry): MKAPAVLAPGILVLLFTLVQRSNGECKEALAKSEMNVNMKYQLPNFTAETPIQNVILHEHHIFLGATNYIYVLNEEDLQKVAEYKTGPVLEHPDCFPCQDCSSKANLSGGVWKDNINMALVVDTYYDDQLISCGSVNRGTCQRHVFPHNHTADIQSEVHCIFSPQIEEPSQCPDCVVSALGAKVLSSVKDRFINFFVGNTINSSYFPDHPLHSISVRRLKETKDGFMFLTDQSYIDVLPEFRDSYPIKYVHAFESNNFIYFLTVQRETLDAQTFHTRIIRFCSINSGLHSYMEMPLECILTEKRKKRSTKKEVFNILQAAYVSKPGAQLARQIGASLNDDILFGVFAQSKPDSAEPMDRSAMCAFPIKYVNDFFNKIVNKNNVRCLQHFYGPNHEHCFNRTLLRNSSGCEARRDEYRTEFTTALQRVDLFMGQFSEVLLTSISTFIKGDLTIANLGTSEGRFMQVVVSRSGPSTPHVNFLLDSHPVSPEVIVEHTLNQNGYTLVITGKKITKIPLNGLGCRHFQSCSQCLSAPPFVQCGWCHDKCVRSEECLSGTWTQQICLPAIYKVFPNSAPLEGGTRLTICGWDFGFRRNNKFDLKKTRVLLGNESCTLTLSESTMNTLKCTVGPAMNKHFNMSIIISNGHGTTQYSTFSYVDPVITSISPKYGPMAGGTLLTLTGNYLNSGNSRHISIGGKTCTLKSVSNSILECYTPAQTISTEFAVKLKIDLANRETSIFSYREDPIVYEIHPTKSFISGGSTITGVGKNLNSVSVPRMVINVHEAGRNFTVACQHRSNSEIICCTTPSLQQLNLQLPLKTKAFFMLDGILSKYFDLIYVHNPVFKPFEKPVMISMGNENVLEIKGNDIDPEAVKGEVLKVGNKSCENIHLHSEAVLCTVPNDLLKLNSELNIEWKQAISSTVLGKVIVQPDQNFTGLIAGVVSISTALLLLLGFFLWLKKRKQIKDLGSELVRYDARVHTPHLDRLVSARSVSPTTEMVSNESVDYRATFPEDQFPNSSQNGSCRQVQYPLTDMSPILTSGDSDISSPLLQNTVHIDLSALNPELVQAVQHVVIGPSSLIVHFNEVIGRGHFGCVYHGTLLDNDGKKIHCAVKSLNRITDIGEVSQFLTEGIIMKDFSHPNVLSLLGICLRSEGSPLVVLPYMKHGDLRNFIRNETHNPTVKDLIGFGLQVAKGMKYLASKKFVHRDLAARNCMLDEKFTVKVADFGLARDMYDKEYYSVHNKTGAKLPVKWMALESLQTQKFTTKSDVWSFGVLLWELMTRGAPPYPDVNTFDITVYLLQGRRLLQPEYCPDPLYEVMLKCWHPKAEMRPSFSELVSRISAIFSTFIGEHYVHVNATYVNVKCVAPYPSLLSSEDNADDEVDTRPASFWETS

HT-29 [5] = assay: Potency index, ratio of IC50 of foretinib to IC50 of compound for cytotoxicity against human HT-29 cells assessed as reduction in cell viability incubated for 72 hrs by MTT assay; type: functional
NCI-H460 [6] = assay: Potency index, ratio of IC50 of foretinib to IC50 of compound for cytotoxicity against human H460 cells assessed as reduction in cell viability incubated for 72 hrs by MTT assay; type: functional
U-87 MG = assay: cells; settings: Homo sapiens, 72 h
Description: Cytotoxicity against human U87MG cells assessed as reduction in cell viability incubated for 72 hrs by MTT assay

A549 [7] = assay: cells; settings: Homo sapiens, A549, 72 h
Description: Cytotoxicity against human A549 cells assessed as reduction in cell viability incubated for 72 hrs by MTT assay

Compound | IC50 (MKN-45) [µM] | IC50 (HT-29 [2]) [µM] | IC50 (NCI-H460 [3]) [µM] | IC50 [4] [µM] | IC50 (U-87 MG) [µM] | IC50 (A549 [7]) [µM] | Ratio IC50 (A549 [1]) | Ratio IC50 (HT-29 [5]) | Ratio IC50 (NCI-H460 [6])
COc1cc2c(Oc3ccc(NC(=O)c4nc5ccccc5n(C5CCCCC5)c4=O)cc3F)ccnc2cc1OCCCN1CCN(C)CC1 | 0.23 | 0.23 | 0.23 | 0.00234 | 0.56 | 0.32 | 5 | 5 | 5
COc1cc2c(Oc3ccc(NC(=O)c4nc5ccccc5n(Cc5ccc(F)cc5)c4=O)cc3F)ccnc2cc1OCCCN1CCCCC1 | 0.22 | 0.72 | 0.87 | – | 2.12 | 1.29 | – | – | –
COc1cc2c(Oc3ccc(NC(=O)c4nc5ccccc5n(C5CCCCC5)c4=O)cc3F)ccnc2cc1OCCCN1CCC(C)CC1 | 0.25 | 0.61 | 0.25 | – | 1.67 | 1.07 | – | – | –
COc1ccc(CCn2c(=O)c(C(=O)Nc3ccc(Oc4ccnc5cc(OCCCN6CCOCC6)c(OC)cc45)c(F)c3)nc3ccccc32)cc1 | 0.23 | 4.94 | 2.33 | – | 12.8 | 6.23 | – | – | –
COc1ccc(CCn2c(=O)c(C(=O)Nc3ccc(Oc4ccnc5cc(OCCCN6CCCCC6)c(OC)cc45)c(F)c3)nc3ccccc32)cc1 | 0.48 | 0.94 | 0.45 | – | 1.6 | 1.01 | – | – | –
COc1cc2c(Oc3ccc(NC(=O)c4nc5ccccc5n(CCc5ccccc5)c4=O)cc3F)ccnc2cc1OCCCN1CCOCC1 | 0.78 | 0.35 | 1.59 | – | 1.35 | 0.91 | – | – | –
COc1cc2c(Oc3ccc(NC(=O)c4nc5ccccc5n(Cc5ccc(F)cc5)c4=O)cc3F)ccnc2cc1OCCCN1CCC(C)CC1 | 0.25 | 0.38 | 0.62 | 0.00256 | 1.96 | 0.48 | – | – | –
COc1cc2c(Oc3ccc(NC(=O)c4nc5ccccc5n(Cc5ccccc5)c4=O)cc3F)ccnc2cc1OCCCN1CCOCC1 | 2.79 | 1.12 | 6.7 | – | 4.28 | 5.33 | – | – | –
COc1cc2c(Oc3ccc(NC(=O)c4nc5ccccc5n(C5CCCCC5)c4=O)cc3F)ccnc2cc1OCCCN1CCOCC1 | 0.18 | 0.38 | 0.18 | 0.00142 | 0.81 | 0.39 | 5 | 5 | 5
COc1cc2c(Oc3ccc(NC(=O)c4nc5ccccc5n(C5CCCC5)c4=O)cc3F)ccnc2cc1OCCCN1CCOCC1 | 3.5 | 4.03 | 1.67 | – | 2.99 | 2.48 | – | – | –

More lines, in order of falling IC50 (MKN-45), values ahead:

IC50 (MKN-45) [µM] | IC50 (HT-29 [2]) [µM] | IC50 (NCI-H460 [3]) [µM] | IC50 [4] [µM] | IC50 (U-87 MG) [µM] | IC50 (A549 [7]) [µM] | Compound | Ratio IC50 (A549 [1]) | Ratio IC50 (HT-29 [5]) | Ratio IC50 (NCI-H460 [6])
4.17 | 0.79 | 3.3 | – | > 10 | 1.67 | COc1ccc(CCn2c(=O)c(C(=O)Nc3ccc(Oc4ccnc5cc(OCCCN6CCN(C)CC6)c(OC)cc45)c(F)c3)nc3ccccc32)cc1 | – | – | –
3.72 | 2.49 | 2.11 | – | 1.59 | 4.37 | COc1cc2c(Oc3ccc(NC(=O)c4nc5ccccc5n(C5CCCC5)c4=O)cc3F)ccnc2cc1OCCCN1CCN(C)CC1 | – | – | –
3.66 | 4.43 | 2.15 | – | 5.39 | 5.79 | COc1cc2c(Oc3ccc(NC(=O)c4nc5ccccc5n(C5CCCC5)c4=O)cc3F)ccnc2cc1OCCCN1CCC(C)CC1 | – | – | –
1.17 | 4.19 | 3.08 | – | 5.21 | 4.36 | COc1cc2c(Oc3ccc(NC(=O)c4nc5ccccc5n(C5CCCC5)c4=O)cc3F)ccnc2cc1OCCCN1CCCCC1 | – | – | –
0.65 | 1.41 | 1.07 | – | 2.74 | 1.92 | COc1cc2c(Oc3ccc(NC(=O)c4nc5ccccc5n(CCc5ccccc5)c4=O)cc3F)ccnc2cc1OCCCN1CCC(C)CC1 | – | – | –
0.41 | 1.22 | 0.51 | – | 2.27 | 0.55 | COc1ccc(CCn2c(=O)c(C(=O)Nc3ccc(Oc4ccnc5cc(OCCCN6CCC(C)CC6)c(OC)cc45)c(F)c3)nc3ccccc32)cc1 | – | – | –
0.31 | 0.96 | 0.45 | – | 1.26 | 1.04 | COc1cc2c(Oc3ccc(NC(=O)c4nc5ccccc5n(CCc5ccccc5)c4=O)cc3F)ccnc2cc1OCCCN1CCN(C)CC1 | – | – | –
0.27 | 0.27 | 0.27 | – | 0.76 | 0.81 | COc1cc2c(Oc3ccc(NC(=O)c4nc5ccccc5n(C5CCCCC5)c4=O)cc3F)ccnc2cc1OCCCN1CCCCC1 | – | – | –
0.26 | 2.38 | 0.93 | – | 0.65 | 2.02 | COc1cc2c(Oc3ccc(NC(=O)c4nc5ccccc5n(Cc5ccc(F)cc5)c4=O)cc3F)ccnc2cc1OCCCN1CCOCC1 | – | – | –
0.23 | 1.83 | 2.24 | – | 1.73 | 2.77 | COc1cc2c(Oc3ccc(NC(=O)c4nc5ccccc5n(Cc5ccc(F)cc5)c4=O)cc3F)ccnc2cc1OCCCN1CCN(C)CC1 | – | – | –
0.18 | 0.87 | 2.11 | – | 3.62 | 2.36 | COc1cc2c(Oc3ccc(NC(=O)c4nc5ccccc5n(CCc5ccccc5)c4=O)cc3F)ccnc2cc1OCCCN1CCCCC1 | – | – | –
